From ChEMBL document CHEMBL1201862, “PubChem BioAssay data set” (2004)
Active and inactive are the calls of the source.

Experiments:
[1] = molecular target: Sphingosine 1-phosphate receptor 4 (Homo sapiens, UniProt O95977); assay: Fluorescence dose response cell-based high throughput screening assay for agonists of the Sphingosine 1-Phosphate Receptor 4 (S1P4). [Related pubchem assays: 1509 (Primary screen.), 1523 (Confirmation screen in triplicates.)]; assay type: functional
[2] = molecular target: Sphingosine 1-phosphate receptor 2 (Homo sapiens, UniProt O95136); assay: Dose Response Cell Based Assay for Agonists of the S1P2 Receptor. [Related pubchem assays: 729, 736, 843 ]; assay type: functional
Chain of Sphingosine 1-phosphate receptor 2 (O95136 whole entry): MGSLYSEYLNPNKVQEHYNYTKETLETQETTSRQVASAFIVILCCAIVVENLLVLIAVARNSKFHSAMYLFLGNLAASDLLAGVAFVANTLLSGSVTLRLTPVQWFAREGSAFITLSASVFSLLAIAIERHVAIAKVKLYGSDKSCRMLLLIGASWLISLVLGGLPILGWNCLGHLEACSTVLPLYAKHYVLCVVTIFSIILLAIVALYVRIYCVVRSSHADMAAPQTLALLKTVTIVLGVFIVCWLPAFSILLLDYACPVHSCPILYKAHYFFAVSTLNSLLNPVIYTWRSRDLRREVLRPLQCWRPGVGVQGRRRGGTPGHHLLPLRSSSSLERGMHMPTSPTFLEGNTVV

[3] = viability of HCT116 lacking mutant beta-catenin – cell-based, human colon tumor, dose response (AID 1045); assay type: functional;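 also: HCT116 colon tumor cells with beta catenin knocked out; cells exposed to compound for 60 hours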
[4] = test system: HT-1080; assay: HT1080 cell viability loss – fluorescence readout (AID 620); assay type: functional, cell-based; details: Homo sapiens
[5] = viability of PTEN-deleted HCT116 cells – cell-based, HCT116 PTEN knockout, dose response (AID 1047); assay type: functional;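 also: HCT116 colon tumor cells with PTEN knocked out; cells exposed to compound for 60 hours before readout; potency for loss of cell viability measured by luminescence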
[6] = molecular target: Luciferin 4-monooxygenase (Photinus pyralis, UniProt P08659); assay: Counter Screen for Luciferase-based Assay Positives. [Related pubchem assays: 620, 618, 411 ]
Chain of Luciferin 4-monooxygenase (P08659 whole entry): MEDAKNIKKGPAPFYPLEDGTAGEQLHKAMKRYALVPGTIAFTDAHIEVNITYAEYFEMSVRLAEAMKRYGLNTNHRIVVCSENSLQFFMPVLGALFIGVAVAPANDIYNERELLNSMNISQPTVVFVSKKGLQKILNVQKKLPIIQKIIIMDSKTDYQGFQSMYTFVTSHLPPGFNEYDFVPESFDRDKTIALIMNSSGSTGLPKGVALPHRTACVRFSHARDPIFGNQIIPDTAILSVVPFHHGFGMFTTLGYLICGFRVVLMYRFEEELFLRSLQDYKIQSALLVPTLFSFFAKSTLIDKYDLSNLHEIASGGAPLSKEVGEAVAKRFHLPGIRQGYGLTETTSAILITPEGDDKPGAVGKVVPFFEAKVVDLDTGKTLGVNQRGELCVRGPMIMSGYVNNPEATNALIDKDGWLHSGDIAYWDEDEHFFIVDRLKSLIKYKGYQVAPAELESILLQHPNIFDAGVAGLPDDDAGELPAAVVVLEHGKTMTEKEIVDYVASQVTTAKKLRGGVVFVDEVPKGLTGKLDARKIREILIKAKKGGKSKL

[7] = molecular target: Sphingosine 1-phosphate receptor 1 (Homo sapiens, UniProt P21453); assay: Fluorescence-based counterscreen assay for S1P4 agonists: Cell-based dose response high throughput screening assay to identify agonists of the Sphingosine 1-Phosphate Receptor 1 (S1P1). [Related pubchem assays (depositor defined):AID1509, AID1523, AID1801, AID463107, AID463118, AID463119, AID463122, AID463123, AID463129, AID463225, AID504400, AID504460]; assay type: functional
Chain of Sphingosine 1-phosphate receptor 1 (P21453 whole entry): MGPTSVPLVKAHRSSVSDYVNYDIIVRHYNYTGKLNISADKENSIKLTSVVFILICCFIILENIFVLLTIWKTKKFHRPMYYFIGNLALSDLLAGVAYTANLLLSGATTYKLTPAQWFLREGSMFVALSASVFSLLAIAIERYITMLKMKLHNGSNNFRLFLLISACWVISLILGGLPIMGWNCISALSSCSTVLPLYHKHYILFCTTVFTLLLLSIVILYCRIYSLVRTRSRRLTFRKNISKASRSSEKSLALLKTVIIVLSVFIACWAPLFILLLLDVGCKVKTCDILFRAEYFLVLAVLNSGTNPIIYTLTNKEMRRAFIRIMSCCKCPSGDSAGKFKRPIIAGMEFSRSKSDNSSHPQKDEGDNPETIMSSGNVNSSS

[8] = antiviral efficacy against SV40, host toxicity – BSC cells, set 3, confirmation (AID 485276); assay type: functional, cell-based
[9] = molecular target: Large T antigen (Simian virus 40, UniProt P03070); assay: A confirmatory biochemical assay using the ADP-Hunter methodology, purified TAg, and ATP to quantify activity of synthesized compounds that inhibit the ATPase activity of Tag (3). [Related pubchem assays (depositor defined):AID1903, AID1909, AID2102, AID2501, AID2615, AID2775, AID435001, AID449729]; design: species or system Betapolyomavirus macacae
Chain of Large T antigen (P03070 whole entry, the tested form may be a part): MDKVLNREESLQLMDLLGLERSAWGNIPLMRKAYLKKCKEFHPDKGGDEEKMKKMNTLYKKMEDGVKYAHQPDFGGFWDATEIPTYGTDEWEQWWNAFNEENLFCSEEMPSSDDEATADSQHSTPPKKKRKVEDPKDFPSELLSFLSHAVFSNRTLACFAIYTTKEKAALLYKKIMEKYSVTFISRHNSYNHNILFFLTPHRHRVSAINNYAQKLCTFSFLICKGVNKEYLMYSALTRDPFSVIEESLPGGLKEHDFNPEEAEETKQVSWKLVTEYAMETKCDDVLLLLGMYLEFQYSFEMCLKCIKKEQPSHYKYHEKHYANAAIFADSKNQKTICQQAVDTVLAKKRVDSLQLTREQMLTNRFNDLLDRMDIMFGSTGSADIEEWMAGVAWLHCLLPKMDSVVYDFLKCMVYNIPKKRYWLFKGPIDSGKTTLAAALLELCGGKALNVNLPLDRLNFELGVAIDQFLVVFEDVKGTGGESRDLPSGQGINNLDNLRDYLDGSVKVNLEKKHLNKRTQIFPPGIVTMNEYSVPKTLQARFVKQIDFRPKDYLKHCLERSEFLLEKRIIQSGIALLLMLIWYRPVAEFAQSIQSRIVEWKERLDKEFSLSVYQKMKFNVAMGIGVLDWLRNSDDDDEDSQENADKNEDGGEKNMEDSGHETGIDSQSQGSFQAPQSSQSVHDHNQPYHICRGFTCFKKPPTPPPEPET

[10] = molecular target: T1, Type-1 angiotensin II receptor (Homo sapiens, UniProt P30556); assay: agonist activity at AGTR1 – cell-based, uHTS hits, selectivity assay for APJ receptor agonist project, dose response (AID 488865); assay type: functional;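 also: beta-arrestin recruitment to AT1 measured by enzyme fragment complementation luminescence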
T1 sequence (P30556 whole entry): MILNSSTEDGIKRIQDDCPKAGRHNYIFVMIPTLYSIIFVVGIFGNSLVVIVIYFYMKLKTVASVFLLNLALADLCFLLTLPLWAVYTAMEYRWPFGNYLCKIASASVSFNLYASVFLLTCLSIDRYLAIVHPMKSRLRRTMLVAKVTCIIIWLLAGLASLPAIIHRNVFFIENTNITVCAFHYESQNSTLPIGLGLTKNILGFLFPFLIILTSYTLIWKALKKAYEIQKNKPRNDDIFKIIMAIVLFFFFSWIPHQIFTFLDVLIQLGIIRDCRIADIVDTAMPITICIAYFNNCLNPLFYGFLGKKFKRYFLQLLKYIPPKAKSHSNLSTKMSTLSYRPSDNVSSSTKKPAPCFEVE

[11] = molecular target: Intestinal-type alkaline phosphatase (Homo sapiens, UniProt P09923); assay: human intestinal alkaline phosphatase activators, dose response, biochemical, luminescence, uHTS hits (AID 463120); assay type: functional
Chain of Intestinal-type alkaline phosphatase (P09923 whole entry): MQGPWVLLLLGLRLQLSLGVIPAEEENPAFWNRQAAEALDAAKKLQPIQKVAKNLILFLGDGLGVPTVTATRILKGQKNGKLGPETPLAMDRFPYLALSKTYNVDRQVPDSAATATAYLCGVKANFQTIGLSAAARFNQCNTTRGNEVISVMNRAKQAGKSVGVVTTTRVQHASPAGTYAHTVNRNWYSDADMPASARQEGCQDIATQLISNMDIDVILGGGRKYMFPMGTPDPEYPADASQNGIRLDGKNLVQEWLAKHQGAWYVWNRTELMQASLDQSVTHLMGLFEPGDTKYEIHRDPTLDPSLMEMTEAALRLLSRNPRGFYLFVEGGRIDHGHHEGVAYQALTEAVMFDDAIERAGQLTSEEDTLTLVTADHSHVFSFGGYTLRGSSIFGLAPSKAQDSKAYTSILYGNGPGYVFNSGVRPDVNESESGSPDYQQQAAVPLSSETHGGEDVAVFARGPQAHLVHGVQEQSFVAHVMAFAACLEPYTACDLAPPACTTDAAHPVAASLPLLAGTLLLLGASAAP

[12] = NIH-3T3 fibroblast cytotoxicity, dose response, cytotoxicity control, cell-based, fluorescence, Alamar Blue, secondary assay (AID 2327); assay type: functional;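 also: NIH-3T3 mouse fibroblasts cultured with fluconazole at 8 µg/mL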
[13] = test system: BJ; assay: BJ-TERT fibroblast viability loss – cell-based, RAS-independent, luminescence, dose response (AID 1933); assay type: functional; details: Homo sapiens
[14] = molecular target: Hexokinase-1 (Homo sapiens, UniProt P19367); assay: HK1 enzyme activation by HKDC1 hits – biochemical, selectivity assay for HKDC1 activator project, dose response (AID 504762); assay type: functional
Chain of Hexokinase-1 (P19367 whole entry): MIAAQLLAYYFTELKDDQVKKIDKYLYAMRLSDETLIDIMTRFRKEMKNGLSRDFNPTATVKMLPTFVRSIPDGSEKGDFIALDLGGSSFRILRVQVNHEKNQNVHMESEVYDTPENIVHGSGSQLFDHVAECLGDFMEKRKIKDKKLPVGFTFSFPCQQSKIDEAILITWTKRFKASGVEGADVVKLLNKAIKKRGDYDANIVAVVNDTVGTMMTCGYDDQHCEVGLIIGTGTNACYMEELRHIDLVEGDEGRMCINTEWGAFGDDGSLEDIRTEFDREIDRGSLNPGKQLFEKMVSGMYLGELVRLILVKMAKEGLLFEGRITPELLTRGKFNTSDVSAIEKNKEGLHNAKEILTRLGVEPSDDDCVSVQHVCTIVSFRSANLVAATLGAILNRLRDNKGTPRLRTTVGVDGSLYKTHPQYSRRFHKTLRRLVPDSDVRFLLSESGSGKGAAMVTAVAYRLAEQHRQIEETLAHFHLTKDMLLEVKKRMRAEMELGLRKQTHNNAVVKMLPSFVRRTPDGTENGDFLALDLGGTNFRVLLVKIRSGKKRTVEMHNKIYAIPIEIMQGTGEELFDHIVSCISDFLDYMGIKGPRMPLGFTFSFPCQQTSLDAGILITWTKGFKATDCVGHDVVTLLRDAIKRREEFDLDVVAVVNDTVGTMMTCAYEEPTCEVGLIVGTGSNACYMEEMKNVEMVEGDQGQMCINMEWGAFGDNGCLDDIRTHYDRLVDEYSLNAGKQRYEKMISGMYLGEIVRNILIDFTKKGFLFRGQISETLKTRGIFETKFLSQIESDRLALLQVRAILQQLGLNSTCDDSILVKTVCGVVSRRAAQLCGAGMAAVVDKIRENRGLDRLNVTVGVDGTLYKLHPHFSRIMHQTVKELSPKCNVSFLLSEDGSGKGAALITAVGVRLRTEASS

[15] = fluconazole-exposed Candida albicans growth modulators – fluorescence, retest, confirmation (AID 2467); assay type: functional, cell-based
[16] = DRD fibroblast viability loss – cell-based, non-viral oncogenic, luminescence, dose response (AID 1934); assay type: functional; details: Homo sapiens
[17] = HEK-293T viability loss after treatment – luminescence, T-cell screen hits, cytotoxicity control for TCR NF-kB inhibitor project, dose response (AID 489026); assay type: functional, cell-based;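 also: cells exposed to compound about 14 hours before the viability readout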
[18] = test system: HEK293; assay: EBV LMP1 TES2 canonical NF-kB signalling blockers – cell-based, HEK293, luciferase, cherry-pick, dose response (AID 588343); assay type: functional; details: Homo sapiens
[19] = test system: BJ; assay: cells; assay type: functional, cell-based; details: Homo sapiens
[20] = luciferase reporter signal suppression in cells – H4 neuroglioma cells, luminescence, dose response (AID 1990); assay type: functional, cell-based
[21] = molecular target: T2, Hexokinase HKDC1 (Homo sapiens, UniProt Q2TB90); assay: activation of HKDC1 glucose phosphorylation – biochemical, W721R variant, dose response (AID 504730); assay type: functional
T2 sequence (Q2TB90 whole entry): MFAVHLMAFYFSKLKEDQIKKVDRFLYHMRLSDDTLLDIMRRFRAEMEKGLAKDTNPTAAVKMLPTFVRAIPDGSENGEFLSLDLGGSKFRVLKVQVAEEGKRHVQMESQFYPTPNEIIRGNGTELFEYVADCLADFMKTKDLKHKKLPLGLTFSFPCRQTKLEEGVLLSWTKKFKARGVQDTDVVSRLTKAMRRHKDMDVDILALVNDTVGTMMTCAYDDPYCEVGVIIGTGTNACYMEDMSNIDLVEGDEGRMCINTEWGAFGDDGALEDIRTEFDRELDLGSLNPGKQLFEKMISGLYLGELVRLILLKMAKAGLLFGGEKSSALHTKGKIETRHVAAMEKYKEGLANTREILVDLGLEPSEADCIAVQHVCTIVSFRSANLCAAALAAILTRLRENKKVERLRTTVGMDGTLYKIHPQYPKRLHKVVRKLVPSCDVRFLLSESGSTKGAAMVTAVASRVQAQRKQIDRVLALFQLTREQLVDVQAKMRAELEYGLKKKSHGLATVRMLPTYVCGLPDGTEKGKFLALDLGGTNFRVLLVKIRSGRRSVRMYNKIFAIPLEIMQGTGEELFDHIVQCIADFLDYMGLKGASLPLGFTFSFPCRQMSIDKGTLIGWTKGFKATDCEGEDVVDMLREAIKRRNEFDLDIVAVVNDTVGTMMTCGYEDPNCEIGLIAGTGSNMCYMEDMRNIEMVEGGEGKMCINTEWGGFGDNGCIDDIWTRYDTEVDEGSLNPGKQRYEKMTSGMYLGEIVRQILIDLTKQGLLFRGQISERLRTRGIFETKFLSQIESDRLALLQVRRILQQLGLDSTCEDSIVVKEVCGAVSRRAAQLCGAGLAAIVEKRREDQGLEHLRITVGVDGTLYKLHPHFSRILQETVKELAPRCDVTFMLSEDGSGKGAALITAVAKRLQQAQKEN

[22] = test system: BJ; assay: growth inhibition of engineered Ras-driven BJ cells – cell-based, alamar blue fluorescence, cherrypicked samples, dose response (AID 2631); assay type: functional; details: Homo sapiens;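 also: confirmatory dose-response assay in RAS-dependent BJ fibroblasts engineered with TERT, LT and ST, with cytotoxicity read by fluorescence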
[23] = Luminescence Cell-Based Dose Response HTS to Identify Inhibitors of 5'UTR Stem-Loop Driven Prion Protein mRNA Translation in H4 Neuroglioblastoma Cells. [Related pubchem assays: 1827 (Project Summary), 1813 (Primary HTS)]; assay type: functional
[24] = alpha-synuclein stem-loop luciferase translation blockers – H4 neuroglioma cells, luminescence, confirmation (AID 1988); assay type: functional, cell-based
[25] = test system: INS1; assay: INS-1E survival protection against cytokine death – cell-based, luminescence, retest, dose response (AID 449756); assay type: functional; details: Rattus norvegicus;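 also: cell death triggered by IL-1 beta plus TNF-alpha plus IFN-gamma mixture; protective hits raise ATP signal compared with cytokine alone wells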
[26] = molecular target: T3, Apoptotic protease-activating factor 1 (Homo sapiens, UniProt O14727); assay type: functional
T3 sequence (O14727 whole entry): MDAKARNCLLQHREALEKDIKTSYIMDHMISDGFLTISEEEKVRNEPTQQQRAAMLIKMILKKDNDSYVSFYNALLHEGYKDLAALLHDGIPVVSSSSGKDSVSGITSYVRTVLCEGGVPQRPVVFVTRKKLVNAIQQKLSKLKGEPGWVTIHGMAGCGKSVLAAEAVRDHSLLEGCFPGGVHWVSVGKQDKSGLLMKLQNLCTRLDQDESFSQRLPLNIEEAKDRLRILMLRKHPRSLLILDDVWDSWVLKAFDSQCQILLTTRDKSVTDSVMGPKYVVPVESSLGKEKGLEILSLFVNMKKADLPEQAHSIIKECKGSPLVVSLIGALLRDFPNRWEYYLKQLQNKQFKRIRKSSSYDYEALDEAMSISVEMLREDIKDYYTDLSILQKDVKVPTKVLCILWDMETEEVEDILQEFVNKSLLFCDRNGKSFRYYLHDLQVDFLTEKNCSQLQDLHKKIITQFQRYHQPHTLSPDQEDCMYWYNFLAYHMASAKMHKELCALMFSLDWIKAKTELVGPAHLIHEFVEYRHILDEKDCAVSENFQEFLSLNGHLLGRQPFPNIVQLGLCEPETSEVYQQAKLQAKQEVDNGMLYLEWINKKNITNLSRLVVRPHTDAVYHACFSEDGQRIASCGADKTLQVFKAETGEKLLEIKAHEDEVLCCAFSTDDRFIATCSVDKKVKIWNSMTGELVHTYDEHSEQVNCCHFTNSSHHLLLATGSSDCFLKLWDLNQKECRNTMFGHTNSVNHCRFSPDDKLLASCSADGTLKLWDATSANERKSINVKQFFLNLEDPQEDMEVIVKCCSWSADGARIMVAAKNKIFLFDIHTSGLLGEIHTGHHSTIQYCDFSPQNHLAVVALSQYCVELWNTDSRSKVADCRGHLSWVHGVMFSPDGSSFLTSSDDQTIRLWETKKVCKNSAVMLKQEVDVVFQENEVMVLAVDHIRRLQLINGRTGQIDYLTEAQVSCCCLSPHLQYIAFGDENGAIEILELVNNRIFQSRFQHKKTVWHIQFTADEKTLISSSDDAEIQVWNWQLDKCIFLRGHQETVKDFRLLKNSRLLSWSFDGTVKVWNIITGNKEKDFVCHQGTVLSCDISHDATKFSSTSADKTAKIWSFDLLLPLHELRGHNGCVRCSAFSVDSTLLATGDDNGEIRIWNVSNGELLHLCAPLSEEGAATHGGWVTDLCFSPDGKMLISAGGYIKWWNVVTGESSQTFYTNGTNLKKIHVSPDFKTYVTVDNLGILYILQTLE

[27] = molecular target: Troponin, cardiac muscle (Homo sapiens, UniProt P19429+P45379+P63316); assay: Fluorescence-based biochemical high throughput dose response assay for activators of the calcium sensitivity of cardiac Regulated Thin Filaments (RTF). [Related pubchem assays (depositor defined):AID493008, AID493018, AID504382, AID504383]; assay type: protein-complex assay
[28] = molecular target: T4, Corticotropin-releasing factor receptor 2/Corticotropin-releasing factor-binding protein (Homo sapiens, UniProt P24387+Q13324); assay: activators of CRF receptor 2 with binding protein – uHTS hits, confirmation (AID 602473); assay type: functional; details: read-out: EC50_Mean
T4 sequence (Q13324 whole entry): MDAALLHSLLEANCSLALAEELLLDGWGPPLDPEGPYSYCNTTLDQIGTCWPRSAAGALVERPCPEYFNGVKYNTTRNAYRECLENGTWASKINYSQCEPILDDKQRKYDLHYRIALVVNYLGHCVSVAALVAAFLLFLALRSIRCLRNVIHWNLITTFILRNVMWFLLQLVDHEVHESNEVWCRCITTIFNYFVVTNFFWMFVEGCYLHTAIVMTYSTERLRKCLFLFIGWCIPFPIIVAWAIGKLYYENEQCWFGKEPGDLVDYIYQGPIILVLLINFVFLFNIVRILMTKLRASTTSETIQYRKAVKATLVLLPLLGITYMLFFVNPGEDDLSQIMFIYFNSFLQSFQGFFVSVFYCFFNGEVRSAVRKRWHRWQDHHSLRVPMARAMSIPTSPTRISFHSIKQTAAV
T4 sequence (P24387 whole entry): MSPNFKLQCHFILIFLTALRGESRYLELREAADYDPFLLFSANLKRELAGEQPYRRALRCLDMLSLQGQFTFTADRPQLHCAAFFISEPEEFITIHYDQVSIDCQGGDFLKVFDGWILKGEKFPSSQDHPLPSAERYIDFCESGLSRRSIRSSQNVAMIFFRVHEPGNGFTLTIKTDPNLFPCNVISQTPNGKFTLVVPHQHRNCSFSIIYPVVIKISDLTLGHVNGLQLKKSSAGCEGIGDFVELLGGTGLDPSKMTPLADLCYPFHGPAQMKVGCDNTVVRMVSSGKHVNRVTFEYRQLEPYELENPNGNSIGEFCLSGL

Chain of Sphingosine 1-phosphate receptor 4 (O95977 whole entry): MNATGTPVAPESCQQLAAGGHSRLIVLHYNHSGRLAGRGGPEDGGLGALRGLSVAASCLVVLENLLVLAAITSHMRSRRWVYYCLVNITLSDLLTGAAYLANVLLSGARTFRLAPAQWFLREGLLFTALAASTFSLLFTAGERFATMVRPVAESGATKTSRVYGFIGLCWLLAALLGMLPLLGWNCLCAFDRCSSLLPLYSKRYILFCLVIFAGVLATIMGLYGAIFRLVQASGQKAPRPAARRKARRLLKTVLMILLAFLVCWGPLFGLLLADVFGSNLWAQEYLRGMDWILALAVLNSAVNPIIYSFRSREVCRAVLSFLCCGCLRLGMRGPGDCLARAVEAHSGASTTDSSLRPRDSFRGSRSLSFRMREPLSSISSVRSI

CN(C)CCCNS(=O)(=O)c1ccc(N2CCC(c3ccc(Cl)cc3)=N2)cc1
EC50 [1]: > 614 nM (active) | EC50 [2]: 338 nM (active) | EC50 [3]: 4670 nM (active) | EC50 [4]: 14400 nM (active) | EC50 [5]: 4530 nM (active) | EC50 [6]: 1040 nM (active) | EC50 [7]: > 614 nM (active)

CC(C)c1cc(C(C)(C)c2ccc(O)c(C(C)C)c2)ccc1O
IC50 [8]: 11900 nM (active) | IC50 [9]: 26700 nM (active)

CCCCC1=CC2=CC(=O)C(C)(OC(=O)CC)C(=O)C2=CN1c1ccccc1 (stereo not drawn)
EC50 [10]: > 100000 nM (inactive)

CCC1CCCCN1C1Sc2ccc(C(=O)OC)cc2NC1=O (stereo not drawn)
EC50 [11]: > 100000 nM (inactive)

Cc1[nH]n(-c2ccccc2)c(=O)c1/C=N/Nc1nncc(-c2ccccc2)n1
EC50 [12]: 2320 nM (active) | EC50 [13]: 2760 nM (active) | EC50 [14]: > 80000 nM (inactive) | EC50 [15]: 2540 nM (active) | EC50 [16]: 2390 nM (active) | IC50 [17]: > 80000 nM (inactive) | AC50 [18]: 2450 nM (active) | EC50 [19]: 3060 nM (active) | EC50 [20]: 733 nM (active) | EC50 [21]: 6690 nM (active) | EC50 [22]: 471 nM (inconclusive) | EC50 [23]: 155 nM (active) | EC50 [24]: 173 nM (active) | AC50 [25]: 394 nM (active) | IC50 [26]: 3500 nM (active)

CCOC(=O)c1sc(-c2ccc(F)cc2)cc1NC(=O)Nc1ccccc1OC
EC50 [27]: > 71400 nM (inactive) | EC50 [28]: > 53000 nM (inactive)
